pIC50: −log10 of the molar value. The source made the active and inactive calls. The rule behind the calls is not given here.
Columns and labels:
[1] = test system: 4T1; assay: Reduction in STAT3 phosphorylation at Tyr705 residue in mouse 4T1 cells implanted in BALB/c mouse at 10 to 20 mg/kg, ip for 14 days by Western blot analysis; format: functional, organism-based
[2] = biological target: Mitogen-activated protein kinase; ERK1/ERK2 (Homo sapiens) (UniProt P27361+P28482); assay: Inhibition of ERK 1/2 in human MDA-MB-231 cells assessed as reduction in ERK 1/2 phosphorylation at 1 to 4 uM incubated for 24 hrs by Western blot analysis; format: cell-based
[3] = biological target: Signal transducer and activator of transcription 3 (Homo sapiens) (UniProt P40763); assay: Inhibition of STAT3 in human MDA-MB-231 cells assessed as decrease in Bcl2 protein expression incubated for 24 hrs by Western blot analysis; format: cell-based
[4] = test system: L02; assay: Cytotoxicity against human LO2 cells assessed as reduction in cell viability incubated for 48 hrs by MTT assay; format: cell-based; settings: L02, 48 h
[5] = biological target: T1, Signal transducer and activator of transcription 1-alpha/beta (Homo sapiens) (UniProt P42224); assay: Inhibition of STAT1 in human MDA-MB-231 cells assessed as decrease in STAT1 phosphorylation at Y701 residue at 1 to 4 uM incubated for 24 hrs by Western blot analysis; format: cell-based
T1 sequence (whole entry): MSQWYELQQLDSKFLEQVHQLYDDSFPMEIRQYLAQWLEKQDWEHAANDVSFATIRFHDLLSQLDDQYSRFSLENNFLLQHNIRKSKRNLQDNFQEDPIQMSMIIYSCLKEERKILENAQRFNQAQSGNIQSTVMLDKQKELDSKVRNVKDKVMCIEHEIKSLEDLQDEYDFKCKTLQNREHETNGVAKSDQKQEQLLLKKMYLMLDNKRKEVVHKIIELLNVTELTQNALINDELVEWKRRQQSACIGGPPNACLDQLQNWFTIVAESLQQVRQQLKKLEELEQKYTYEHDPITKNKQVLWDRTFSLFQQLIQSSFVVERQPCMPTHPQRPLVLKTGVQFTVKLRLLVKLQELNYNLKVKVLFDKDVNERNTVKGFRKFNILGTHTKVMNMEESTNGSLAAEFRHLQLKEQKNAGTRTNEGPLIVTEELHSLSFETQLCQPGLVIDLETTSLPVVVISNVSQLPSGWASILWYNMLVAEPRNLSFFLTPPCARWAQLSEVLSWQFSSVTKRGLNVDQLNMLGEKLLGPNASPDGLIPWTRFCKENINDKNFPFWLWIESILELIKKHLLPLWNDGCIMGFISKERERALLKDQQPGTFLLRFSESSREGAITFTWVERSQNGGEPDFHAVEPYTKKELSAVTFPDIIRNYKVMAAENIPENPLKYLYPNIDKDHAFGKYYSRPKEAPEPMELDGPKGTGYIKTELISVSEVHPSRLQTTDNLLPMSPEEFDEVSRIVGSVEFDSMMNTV

[6] = test system: MDA-MB-231; assay: Effect on total STAT3 expression in human MDA-MB-231 cells at 1 to 4 uM incubated for 24 hrs by Western blot analysis; format: ADME, cell-based; settings: mda-mb-231, 24 h
[7] = test system: MDA-MB-231; assay: Induction of apoptosis in human MDA-MB-231 cells assessed as necrotic cells at 1 uM incubated for 24 hrs by annexinV-FITC and propidium iodide staining based flow cytometric analysis (reference value: 0.8%); format: functional
[8] = test system: MDA-MB-231; assay: Induction of apoptosis in human MDA-MB-231 cells assessed as viable cells at 1 uM incubated for 24 hrs by annexinV-FITC and propidium iodide staining based flow cytometric analysis (reference value: 95.1%); format: functional; settings: MDA-MB-231, 24 h, read-out: Activity
[9] = test system: 4T1; assay: Antitumor activity against mouse 4T1 cells implanted in BALB/c mouse assessed as reduction in tumor weight at 20 mg/kg, ip for 14 days; format: functional; settings: 4T1, ip, 336 h
[10] = test system: MDA-MB-231; assay: Induction of apoptosis in human MDA-MB-231 cells assessed as increase in cleaved caspase-3 levels at 1 to 4 uM incubated for 24 hrs by Western blot analysis; format: functional, cell-based
[11] = test system: MDA-MB-231; assay: Induction of apoptosis in human MDA-MB-231 cells assessed as necrotic cells at 2 uM incubated for 24 hrs by annexinV-FITC and propidium iodide staining based flow cytometric analysis (reference value: 0.8%); format: functional
[12] = test system: MDA-MB-231; assay: Induction of apoptosis in human MDA-MB-231 cells assessed as viable cells at 4 uM incubated for 24 hrs by annexinV-FITC and propidium iodide staining based flow cytometric analysis (reference value: 95.1%); format: functional; settings: MDA-MB-231, 24 h, read-out: Activity
[13] = test system: 4T1; assay: Antitumor activity against mouse 4T1 cells implanted in BALB/c mouse assessed as reduction in tumor weight at 10 mg/kg, ip for 14 days; format: functional; settings: 4T1, ip, 336 h
[14] = test system: MDA-MB-231; assay: Induction of apoptosis in human MDA-MB-231 cells assessed as late apoptotic cells at 4 uM incubated for 24 hrs by annexinV-FITC and propidium iodide staining based flow cytometric analysis (reference value: 1.0%); format: functional
[15] = test system: MDA-MB-231; assay: Antiproliferative activity against human MDA-MB-231 cells assessed as reduction in cell viability incubated for 48 hrs by MTT assay; format: functional, cell-based; settings: MDA-MB-231, 48 h
[16] = test system: MDA-MB-231; assay: Induction of apoptosis in human MDA-MB-231 cells assessed as late apoptotic cells at 2 uM incubated for 24 hrs by annexinV-FITC and propidium iodide staining based flow cytometric analysis (reference value: 1.0%); format: functional
[17] = test system: HepG2; assay: Antiproliferative activity against human HepG2 cells assessed as reduction in cell viability incubated for 48 hrs by MTT assay; format: functional, cell-based; settings: HepG2, 48 h
[18] = test system: MDA-MB-231; assay: Induction of apoptosis in human MDA-MB-231 cells incubated for 24 hrs by annexinV-FITC and propidium iodide staining based flow cytometric analysis; format: functional, cell-based
[19] = test system: MDA-MB-231; assay: Induction of apoptosis in human MDA-MB-231 cells assessed as increase in cleaved caspase-9 levels at 1 to 4 uM incubated for 24 hrs by Western blot analysis; format: functional, cell-based
[20] = test system: MCF-10A; assay: Cytotoxicity against human MCF10A cells assessed as reduction in cell viability incubated for 48 hrs by MTT assay; format: cell-based
[21] = test system: HCT-116; assay: Potency index, ratio of IC50 of BTP to ratio of IC50 of compound for antiproliferative activity against human HCT116 cells assessed as reduction in cell viability incubated for 48 hrs by MTT assay; format: functional
[22] = test system: MCF7; assay: Potency index, ratio of IC50 of BTP to ratio of IC50 of compound for antiproliferative activity against human MCF7 cells assessed as reduction in cell viability incubated for 48 hrs by MTT assay; format: functional
[23] = biological target: Proto-oncogene tyrosine-protein kinase Src (Homo sapiens) (UniProt P12931); assay: Inhibition of Src in human MDA-MB-231 cells assessed as reduction in Src phosphorylation at 1 to 4 uM incubated for 24 hrs by Western blot analysis; format: cell-based
[24] = biological target: Signal transducer and activator of transcription 3 (Homo sapiens) (UniProt P40763); assay: Inhibition of STAT3 in human MDA-MB-231 cells assessed as decrease in STAT3-DNA binding at 1 to 4 uM incubated for 24 hrs by electrophoretic mobility shift assay; format: cell-based
[25] = test system: 4T1; assay: Antitumor activity against mouse 4T1 cells implanted in BALB/c mouse assessed as reduction in tumor volume at 20 mg/kg, ip for 14 days; format: functional; settings: 4T1, ip, 336 h

Signal transducer and activator of transcription 3 (Homo sapiens), sequence (P40763 whole entry): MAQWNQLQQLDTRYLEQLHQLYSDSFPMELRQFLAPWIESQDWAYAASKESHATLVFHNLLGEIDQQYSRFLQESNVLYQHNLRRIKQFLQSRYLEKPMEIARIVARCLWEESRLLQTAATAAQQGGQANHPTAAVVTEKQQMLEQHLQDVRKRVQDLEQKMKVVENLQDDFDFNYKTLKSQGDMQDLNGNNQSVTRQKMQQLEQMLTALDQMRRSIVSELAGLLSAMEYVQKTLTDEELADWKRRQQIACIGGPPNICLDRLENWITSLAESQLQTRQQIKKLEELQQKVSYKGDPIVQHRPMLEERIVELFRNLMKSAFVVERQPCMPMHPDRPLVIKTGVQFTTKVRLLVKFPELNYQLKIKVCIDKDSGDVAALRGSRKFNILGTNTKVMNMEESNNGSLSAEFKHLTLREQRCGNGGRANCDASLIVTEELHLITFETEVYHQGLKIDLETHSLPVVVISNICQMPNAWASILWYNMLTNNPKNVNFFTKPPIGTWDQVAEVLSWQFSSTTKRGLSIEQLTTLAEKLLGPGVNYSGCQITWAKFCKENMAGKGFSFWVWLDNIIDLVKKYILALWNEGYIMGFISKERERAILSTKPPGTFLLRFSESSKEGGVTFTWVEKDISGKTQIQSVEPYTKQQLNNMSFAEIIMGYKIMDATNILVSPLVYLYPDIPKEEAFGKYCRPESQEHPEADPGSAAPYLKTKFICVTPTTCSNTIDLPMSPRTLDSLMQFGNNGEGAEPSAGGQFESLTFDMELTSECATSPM
Mitogen-activated protein kinase; ERK1/ERK2 (Homo sapiens), sequence (P27361 whole entry, looked up): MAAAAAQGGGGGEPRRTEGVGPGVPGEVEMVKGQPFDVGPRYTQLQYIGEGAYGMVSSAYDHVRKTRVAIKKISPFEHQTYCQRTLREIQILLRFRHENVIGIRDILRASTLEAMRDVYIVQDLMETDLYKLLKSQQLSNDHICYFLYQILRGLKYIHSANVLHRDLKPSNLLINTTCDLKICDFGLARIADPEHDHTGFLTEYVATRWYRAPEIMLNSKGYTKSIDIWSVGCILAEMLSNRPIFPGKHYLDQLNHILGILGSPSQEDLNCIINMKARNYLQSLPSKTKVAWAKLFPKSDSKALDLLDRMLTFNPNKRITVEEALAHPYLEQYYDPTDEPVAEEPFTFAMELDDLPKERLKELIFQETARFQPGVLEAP
Mitogen-activated protein kinase; ERK1/ERK2 (Homo sapiens), sequence (P28482 whole entry, looked up): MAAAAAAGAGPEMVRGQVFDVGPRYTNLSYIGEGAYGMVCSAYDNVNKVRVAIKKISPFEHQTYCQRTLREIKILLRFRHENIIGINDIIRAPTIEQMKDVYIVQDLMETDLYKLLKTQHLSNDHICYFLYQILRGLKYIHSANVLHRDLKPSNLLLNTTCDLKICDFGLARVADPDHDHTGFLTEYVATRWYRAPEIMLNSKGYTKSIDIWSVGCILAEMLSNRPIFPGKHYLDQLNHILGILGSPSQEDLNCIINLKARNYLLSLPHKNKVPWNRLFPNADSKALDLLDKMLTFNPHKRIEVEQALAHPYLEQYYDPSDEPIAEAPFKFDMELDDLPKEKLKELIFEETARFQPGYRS
Proto-oncogene tyrosine-protein kinase Src (Homo sapiens), sequence (P12931 2-536 limits assumed): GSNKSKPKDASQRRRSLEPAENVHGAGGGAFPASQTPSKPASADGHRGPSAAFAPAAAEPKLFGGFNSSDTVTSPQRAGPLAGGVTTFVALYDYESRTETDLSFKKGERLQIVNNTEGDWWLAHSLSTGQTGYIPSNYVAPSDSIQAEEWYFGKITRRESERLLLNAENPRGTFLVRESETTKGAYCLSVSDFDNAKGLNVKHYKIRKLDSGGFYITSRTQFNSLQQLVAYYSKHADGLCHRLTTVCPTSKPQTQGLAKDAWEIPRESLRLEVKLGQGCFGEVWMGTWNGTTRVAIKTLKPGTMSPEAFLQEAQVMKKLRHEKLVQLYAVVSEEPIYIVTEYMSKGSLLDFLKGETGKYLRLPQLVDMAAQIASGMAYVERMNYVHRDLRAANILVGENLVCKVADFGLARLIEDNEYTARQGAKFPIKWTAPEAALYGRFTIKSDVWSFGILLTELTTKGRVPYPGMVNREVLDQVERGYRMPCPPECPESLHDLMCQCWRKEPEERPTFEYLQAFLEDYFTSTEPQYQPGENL

inhibition [2]: inactive
inhibition [3]: Dose-dependent effect
inhibition [5]: inactive
pIC50 [15]: 5.84
pIC50 [17]: 5.54
inhibition [23]: inactive
inhibition [24]: Active
SMILES: CCN(CC)c1ccc2cc(C(=O)N3CCN(C(=O)C4=Cc5c(Br)cccc5S4(=O)=O)CC3)c(=O)oc2c1
inhibition [1]: Active
pIC50 [4]: 4.45
Activity [6]: Non-Toxic
Activity [7]: 1.3%
viability at 1 µM [8]: 92%
inhibition in vivo at 20 mg/kg [9]: 56.9%
Activity [10]: Active
Activity [11]: 1.6%
viability at 4 µM [12]: 77.5%
inhibition in vivo at 10 mg/kg [13]: 39.7%
Activity [14]: 4.8%
Activity [16]: 1.8%
Activity [18]: Dose-dependent effect
Activity [19]: Active
pIC50 [20]: 4.84
Ratio IC50 [21]: 4.6 - 19
Ratio IC50 [22]: 4.6 - 19
inhibition in vivo at 20 mg/kg [25]: 61.2%
